Reference: patent US7129250B2, “Neuroprotective and anti-proliferative compounds” (Aegera Therapeutics Inc., priority 2000, dated 2006)
“And” between values parts separate entries of the source, which are not always exact repeats. Identical values can stand only once.

Assays:
CGNs [1] = assay: β-Amyloid Aggregation Assay in CGNs; assay type: cell-based; conditions: for IC50: Aβ 25 μM, assayed 5 days after Aβ addition
Description: Various mechanisms have been put forward in order to account for the neurotoxicity related to extracellular Aβ fibril formation. […] Regardless of the mode of action, extracellular Aβ fibril formation acts as an effective apoptotic trigger for neuronal cells and serves as an in vitro model for various neurodegenerative diseases characterized by extracellular protein fibril formation, typified by diseases such as AD and PD.
CGNs were harvested from day 8/9 post-natal CD1 mice, plated on Poly-D-Lycine coated plates and incubated for 6 days at 37° C. under 5% CO2. Pretreated cells were treated with drug 24 hours prior to A-β (25 μM) and drug addition.

HIAP1 mRNA in LAN5 cells = assay: LAN5 HAIP1 Down Regulators (RNA levels); assay type: cell-based; conditions: HIAP1 RNA level vs control = 1.0; 24 hours drug
Procedure: LAN5 cells were grown in growth media. Cells were plated at cells 50,000 per well in 96 cells per 96 wells. Five days latter drug was added and the cells were liced 24 hours latter using RLT buffer.

CGNs [2] = assay: Glutamate Killing of CGNs; assay type: cell-based, CD1 mice; conditions: glutamate 100 uM
Description: Glutaminergic neurons secrete the neurotransmitter glutamate as a part of normal cell signaling processes. Intracellular glutamate levels are regulated by glial cell uptake and conversion to glutamine. Under conditions of oxidative stress, as observed in various neurodegenerative diseases such as stroke, ALS, PD, and HD, glutaminergic neurons release massive amounts of glutamate into the […] fluid, overwhelming the surrounding cells. Stimulation of both NMDA and non NMDA-type glutamate excitory receptors leads to sustained depolarization of postsynaptic dendrosomal membranes, increased membrane permeability, and impaired ion homeostasis, all leading to either apoptotic or necrotic cell death.
CGNs were harvested from day 8/9 post-natal CD1 mice, plated on Poly-D-Lycine coated plates and incubated for 6 days at 37° C. under 5% CO2. Cells were pretreated with drug 24 hours prior to glutamate (100 uM) and drug addition.

CGNs [3] = assay: Ceramide Killing of CGNs; assay type: cell-based, CD1 mice; conditions: ceramide 100 uM
Description: Ceramide is a native […] found in most mammalian and human cells. The upregulation of endogenous ceramide has been linked to caspase 1 (ICE) induced apoptosis (Suzuki, A. et al. Exp. Cel. Res., 1997, 233, 41). In a similar fashion, the addition of ceramide to cultured CGNs results in caspase induced apoptosis, and is therefore considered an effective in vitro model for the various neurodegenerative diseases described above, which are characterized by caspase induced apoptosis, as observed in stroke models. Addition of selected compounds of the formula I through III, 24 hours prior to the addition of ceramide, to cultured CGNs provided protection against apoptosis, with 10 to 20% of the cells being saved at 1–10 μM drug concentrations (see Example 114).
CGNs were harvested from day 8/9 post-natal CD1 mice, plated on Poly-D-Lycine coated plates and incubated for 6 days at 37° C. under 5% CO2. Cells were pretreated with drug 24 hours prior to ceramide (100 uM) and drug addition.

CGNs [4] = assay: Cisplatin Killing of CGNs; assay type: cell-based, CD1 mice; conditions: for survival: 300 nM drug, cisplatin
Procedure: Cisplatin has been used extensively in the treatment of various cancers. One dosblimiting side effect of this chemotherapeutic agent is related to hearing loss as a result of its toxicity to auditory neurons and loss of feeling in the extremities. Cisplatin induces apoptosis to both cultured CGN and cortical neurons.
CGNs were harvested from day 8/9 post-natal CD1 mice, plated on Poly-D-Lycine coated plates and incubated for 6 days at 37° C. under 5% CO2. The cells were treated with media containing drug and cisplatin […].

Caspase 3 = Caspase 3 induction during HK/LK killing of CGNs; assay type: cell-based, CD1 mice
Description: Caspase 3 induction ultimately leads to cell death and is observed in any number of neurodegenerative diseases. Compounds which inhibit caspase 3 induction represent potent therapies for various neurodegenerative diseases.

Cortical neurons = assay: Cisplatin Killing of Cortical Neurons; assay type: cell-based, Sprague-Dawley rats; conditions: for % Protection at 10 μM: drug 10 μM 24 h pre-treatment
Procedure: Cortical neurons were harvested from day E18 female Sprague-Dawley rats, plated on Poly-L-Lycine coated plates and incubated for 14 days at 37° C. under 5% CO2. […]

[5] = test system: OV 2008 ovarian cancer cells; assay: Cisplatin induced apoptosis of OV 2008 ovarian cancer cells; assay type: cell-based; conditions: cisplatin (20 μg/mL)
Description: Regardless of its neuroprotective capability, if a compound interferes with chemotherapy by protecting cancer cells from an apoptotic stimuli then the compound is of less value as an anti-cancer therapeutic.

[6] = test system: rat spinal cord ex-plants; assay: Spinal Cord Explant neurite extension; assay type: cell-based; conditions: 3 μM; ex-plants on growth inhibitory substrates
Description: The inability of neurites to regenerate or overcome stimuli which inhibit or prevent the formation of normal neuritic extensions and connections is characteristic of the conditions found in spinal cord and related injuries, AD and the like. Select compounds of this invention promote the formation of neuritic extension in spinal cord ex-plants which have been cultured on growth inhibitory substrates.
Spinal cords from P1 rat pups were isolated for neurite extension analysis. Lumbar cord was separated in two along the spinal canal. […] lateral sections were obtained with a McIlwain tissue chopper. Slices were cultured in poly L-lysine coated 24 well plates in Neurobasal media supplemented with B27, penicillin, streptomycin, and glutamate. Test compounds were added to the media and neurite extension out of the explant onto the poly L-coated plastic was assessed after 7 days in culture. Neurites were visualized either by phase contrast microscopy or by beta 3 tubulin immunofluorescence.

SHSY-5Y cells = assay: Etoposide Killing of SHSY-5Y; assay type: cell-based; conditions: etoposide 32 uM
Procedure: SHSY-5Y cells were grown in growth media. Cells are placed at 50,000 cells per 96 well. Four days latter the cells were treated with drug for 48 hours prior to etoposide (32 uM) treatment. On day 6 media was changed to that containing etoposide and drug for 4 hours, at which point the media was changed to media containing drug only. Cells are allowed to survive overnight and then assessed for viability with metabolic activity measured (WST-1-Beohringer Mannheime), as shown in TABLE 13.

SCG neurons = assay: NGF Withdrawal Killing of SCG Neurons; assay type: cell-based, Sprague-Dawley rats; conditions: Rattus norvegicus, Neuron, assayed 48 hours after drug
Description: Cultured Superiour Cervical Ganglion (SCG) neurons of the PNS which have been sustained in media containing Neuron Growth Factor (NGF) undergo apoptotic cell death upon removal of the NGF from the cellular medium. Loss of neuronal trofin support has been implicated in various neurodegenerative disease states in the PNS, such as diabetic neuropathy and neuropahies related to chemotherapeutic and anti-HIV drug treatment.
SCG neurons were harvested from day 1 post natal Sprague-Dawley rats, plated on collagen coated plates and incubated for 5 days in the presence of 50 ng/mL NGF at 37° C. under 5% CO2. The cells were washed with NGF free media, 4 times at 1 hour intervals, at which time drug was added.

CGNs [7] = assay: High/Low Potassium (HK/LK) assay in CGNs; assay type: cell-based; conditions: for IC50: Mus musculus, HK/LK switch, drug 24 h pre-treatment, assayed 16 h after media change, concentration at which cell death was inhibited by 50%
Procedure: Cultured CGNs which are maintained in a medium containing 26 mM potassium (high K^+ or HK) undergo cell death when the medium is changed to one containing 5 mM potassium (low K^+ or LK). HK maintains the cells in a highly polarized state, duplicating that of fully innervated neurons. The switch to LK (5 mM is more representative of physiological conditions) results in depolarization of the cells, mimicking the loss of neuronal conductivity. […] As these killer genes are turned on by various types of neuronal insult as observed in AD, PD, and stroke, HK/LK is a general in vitro model for neuronal degradation, blanketing a wide range of neurodegenerative diseases. Compounds that protect against HK/LK in CGNs would therefore be efficacious in treatment and/or prevention of various neurodegenerative disease states.
CGNs were harvested from day 8/9 post-natal CD1 mice, plated on Poly-D-Lycine coated plates and incubated for 6 days at 37° C., with […] potassium, under 5% CO2. Pretreated cells were treated with drug 24 hours prior to changing the media to one containing […] potassium and drug. Cells were assayed 16 hours after the final media change using cell TITER96 (Promega).

[8] = assayed 48 hours after final drug treatment
[9] = cisplatin induced apoptosis in CGNs
[10] = Mus musculus, assayed 48 hours after final drug treatment

COc1ccc2c(c1)c(C1=CC(=O)NC1=O)cn2S(=O)(=O)c1ccc(C)cc1 [Compound 87, 3-(N-tosyl-5-methoxyindol-3-yl)-1H-pyrrole-2,5-dione]
IC50 (CGNs [1]; Mus musculus, 120 h): 10000 nM
Fold Induction (HIAP1 mRNA in LAN5 cells): 0.37
% CGN Survival (CGNs [2]; drug 100 nM): 0%
% CGN Survival (CGNs [2]; drug 1 μM): 11.5%
% CGN Survival (CGNs [3]; drug 1 μM): 0%
% CGN Survival (CGNs [3]; drug 10 μM): 9.1%

O=C1C=C(c2c[nH]c3ccc(OCc4ccccc4)cc23)C(=O)N1 [Compound 64, 3-(1-H-5-benzyloxyindol-3-yl)-1H-pyrrole-2,5-dione]
IC50 (CGNs [1]): 1000 nM
IC50 (CGNs [4]; [8]): 3000 nM
inhibition of caspase 3 induction (Caspase 3; 10 μM): 33%
% CGN Survival (CGNs [2]; drug 100 nM): 0%
% CGN Survival (CGNs [2]; drug 1 μM): 4.0%
% CGN Survival (CGNs [2]; drug 10 μM): 32.5%
% CGN Survival (CGNs [3]; drug 1 μM): 18.0%
% CGN Survival (CGNs [3]; drug 10 μM): 5.1%

O=C1NC(=O)C2=C1c1c(n(CCO)c3ccc(OCc4ccccc4)cc13)C1Cc3ccccc3N21 (stereo not shown) [Compound 36]
survival (CGNs [4]): 80%
IC50 (CGNs [4]; [9]): 100 nM
% Protection at 10 μM (Cortical neurons): 9%
protection of cancer cells from cisplatin induced apoptosis [5]: did not protect

O=C1NC(=O)c2c1c1c3ccccc3[nH]c1c1nc3ccccc3n21 [Compound 53]
% Protection at 10 μM (Cortical neurons): 41%

O=C1NCC2=C1N1c3ccccc3CC1c1c2c2ccccc2n1CCCO (stereo not shown) [Compound 176]
formation of neuritic extensions [6]: induce the formation of neuritic extensions

O=C1NC(=O)C(n2ccc3ccccc32)=C1c1c[nH]c2ccccc12 [Compound 1, 3-(indol-1-yl)-4-(1H-indol-3-yl)-1H-pyrrole-2,5-dione]
IC50 (CGNs [4]; [10]): 10000 nM
melting point: 212 to 213 °C
% SHSY-5Y cell survival (SHSY-5Y cells; drug 1 μM): 0%
% SHSY-5Y cell survival (SHSY-5Y cells; drug 10 μM): 12.5%
IC50 (SCG neurons): 20000 nM

COc1ccc2c(c1)c1c3c(n4c5ccccc5cc4c1n2C(=O)COC(C)=O)C(=O)NC3=O [Compound 51]
IC50 (CGNs [4]; [10]): 1000 nM
% Protection at 10 μM (Cortical neurons): 20% and 23%

O=C1NC(=O)c2c1c1c3ccccc3[nH]c1c1cc3ccccc3n21 [Compound 42]
IC50 (CGNs [1]; Mus musculus, 120 h): 1000 nM
IC50 (CGNs [4]; [10]): 3000 nM
IC50 (CGNs [7]): 3000 nM
inhibition at 10 µM (Caspase 3; Mus musculus): 50%
% CGN Survival (CGNs [3]; drug 1 μM): 20.0%
% CGN Survival (CGNs [3]; drug 10 μM): 18.0%
IC50 (SCG neurons): 20000 nM

COc1ccc2[nH]cc(C3=C(n4ccc5ccccc54)C(=O)NC3=O)c2c1 [Compound 2, 3-(5-Methoxyindol-3-yl)-4-(indol-1-yl)-1H-pyrrole-2,5-dione]
IC50 (CGNs [1]; Mus musculus, 120 h): 10000 nM
IC50 (CGNs [4]; [10]): 10000 nM

O=C1NC(=O)C2=C1c1c([nH]c3ccccc13)C1Cc3ccccc3N21 (stereo not shown) [Compound 24]
IC50 (CGNs [1]; Mus musculus, 120 h): 10000 nM
IC50 (CGNs [4]; [10]): 3000 nM
IC50 (CGNs [7]): 10000 nM
% CGN Survival (CGNs [2]; drug 100 nM): 0%
% CGN Survival (CGNs [2]; drug 1 μM): 17.0%
% CGN Survival (CGNs [2]; drug 10 μM): 22.3%
% CGN Survival (CGNs [3]; drug 1 μM): 11.4%
% CGN Survival (CGNs [3]; drug 10 μM): 10.7%

CC(=O)n1cc(C2=CC(=O)NC2=O)c2cc(Br)ccc21 [Compound 57, 3-(N-acetyl-5-bromoindol-3-yl)-1H-pyrrole-2,5-dione]
Fold Induction (HIAP1 mRNA in LAN5 cells): 0.45
melting point: 271 to 272.9 °C

CCSCc1ccc2c(c1)c1c3c(c4c5cc(CSCC)ccc5n5c4c1n2[C@H]1C[C@](O)(C(=O)OC)[C@]5(C)O1)CNC3=O [CEP 1347, reference compound]
protection (CGNs [1]; concentrations below 300 nM): > 10%
IC50 (CGNs [7]): 1000 nM
toxicity (CGNs [7]; higher doses): toxic at higher doses
% Protection (Cortical neurons; drug at 0.3 μM, cisplatin): 32%
% CGN Survival (CGNs [2]; 300 nM, (250 nM in source)): 50.0 (250 nM) %
% CGN Survival (CGNs [2]; drug 100 nM): 0%
% CGN Survival (CGNs [2]; drug 1 μM): 7.0%
% CGN Survival (CGNs [3]; 300 nM, (250 nM in source)): 0 (250 nM) %
% CGN Survival (CGNs [3]; drug 1 μM): 1.8%
% SHSY-5Y cell survival (SHSY-5Y cells; drug 1 μM): 12.5%

O=C1NC(=O)c2c1c1c3cc(OCc4ccccc4)ccc3[nH]c1c1cc3ccccc3n21 [Compound 52]
IC50 (CGNs [4]; [8]): 3000 nM
% Protection at 10 μM (Cortical neurons): 50% and 40%

O=C1NC(=O)C2=C1c1c([nH]c3ccc(OCc4ccccc4)cc13)C1Cc3ccccc3N21 (stereo not shown) [Compound 35]
survival (CGNs [4]): 80%
IC50 (CGNs [4]; [9]): 100 nM
% Protection at 10 μM (Cortical neurons): 10% and 11%
